Counter-ions that a name gives are not always drawn. Like-named read-outs stand apart in the source and are kept apart here.
Legend:
[1] = tested on: primary rat microglia; experiment: Cell toxicity (dead cells, size <150 μm2) in LPS assay
[2] = tested on: primary rat microglia; experiment: Cell toxicity (dead cells, size <150 μm2) in coated fibrin (cFib) assay;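 for Fibrin % cell toxicity: share of dead cells sized under 150 µm2 at 10 µM in fibrin-stimulated microglia HTS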
[3] = tested on: LPS-induced microglia activation; experiment: Image-based assay of LPS-induced microglia activation (HTS and dose response); format: cell-based, rat; conditions: for inhibition at 10 µM: Rattus norvegicus, Microglia, read-out: LPS % inhibition
[4] = tested on: fibrin-induced microglia activation; experiment: Image-based assay of fibrin-induced microglia activation (HTS and dose response); format: cell-based, rat; conditions: for inhibition at 10 µM: Rattus norvegicus, Microglia, read-out: Fibrin % inhibition
[5] = tested on: fibrin- and LPS-induced microglia activation; experiment: cells; format: cell-based, rat
[6] = primary microglia HTS, 10 μM, LPS assay, cell size <150 μm^2 as marker of toxicity
[7] = primary microglia HTS, 10 μM, fibrin assay, cell size <150 μm^2 as marker of toxicity
[8] = primary microglia HTS, 10 μM, LPS-stimulated, cell size >800 μm^2 as marker of activation
[9] = primary microglia HTS, 10 μM, fibrin-stimulated, cell size >800 μm^2 as marker of activation
[10] = HTS of 1907 compounds, quadrant by fibrin and LPS inhibition
[11] = primary HTS, 10 μM, LPS assay, dead cells size <150 μm2
[12] = primary HTS, 10 μM, fibrin assay, dead cells size <150 μm2
[13] = primary HTS, 10 μM, LPS-stimulated primary microglia
[14] = primary HTS, 10 μM, fibrin-stimulated primary microglia
[15] = primary microglia HTS, LPS stimulation, decreased size (<150 μm^2) as marker of toxicity
[16] = primary microglia HTS, fibrin stimulation, decreased size (<150 μm^2) as marker of toxicity
[17] = 48 h, primary microglia HTS, LPS stimulation, increased cell size (>800 μm^2) as marker of activation
[18] = primary microglia HTS, fibrin stimulation, increased cell size (>800 μm^2) as marker of activation
[19] = quadrant by fibrin and LPS inhibition in HTS of 1907 compounds
[20] = primary microglia HTS, LPS stimulation, toxicity = cell size <150 μm2
[21] = primary microglia HTS, fibrin stimulation, toxicity = cell size <150 μm2
[22] = 48 h, primary microglia HTS, LPS stimulation, activation = cell size >800 μm2
[23] = primary microglia HTS, fibrin stimulation, activation = cell size >800 μm2

CC(C)C[C@H](NC(=O)[C@@H](Cc1c[nH]c2ccccc12)NC(=O)[C@H](Cc1ccc(O)cc1)NC(=O)[C@H](CO)NC(=O)[C@H](Cc1c[nH]c2ccccc12)NC(=O)[C@H](Cc1c[nH]cn1)NC(=O)[C@@H]1CCC(=O)N1)C(=O)N[C@@H](CCCNC(=N)N)C(=O)N1CCC[C@H]1C(=O)NCC(N)=O [Triptorelin]
LPS % cell toxicity [1, 6]: 0%
Fibrin % cell toxicity [2, 7]: 1%
LPS % inhibition [3, 8]: 4%
Fibrin % inhibition [4, 9]: −15%
Quadrant (FIG. 5b) [5, 10]: Q4

CCCCOC(=O)c1ccc(N)cc1 [Butamben]
LPS % cell toxicity [1, 11]: 1%
Fibrin % cell toxicity [2, 12]: 0%
inhibition at 10 µM [3, 13]: 14%
inhibition at 10 µM [4, 14]: -25%
Quadrant (FIG. 5b) ([5]; primary HTS, 10 μM): Q4

CN(C)CCOC(=O)COc1ccc(Cl)cc1 [Meclofenoxate]
LPS % cell toxicity [1, 15]: 0%
Fibrin % cell toxicity [2, 16]: 1%
inhibition at 10 µM [3, 17]: 24%
inhibition at 10 µM [4, 18]: -23%
Quadrant (FIG. 5b) [5, 19]: Q4

CO/N=C(\C(=O)N[C@@H]1C(=O)N2C(C(=O)O)=C(CSC(=O)c3ccco3)CS[C@H]12)c1csc(N)n1 [Ceftiofur Hydrochloride]
LPS % cell toxicity [1, 11]: 0%
Fibrin % cell toxicity [2, 12]: 1%
inhibition at 10 µM [3, 13]: 14%
inhibition at 10 µM [4, 14]: 4%
Quadrant (FIG. 5b) ([5]; primary HTS, 10 μM): Q4

Nc1nc2c(c(=O)[nH]1)N(C=O)C(CNc1ccc(C(=O)N[C@@H](CCC(=O)O)C(=O)O)cc1)CN2 (stereo partly drawn) [Leucovorin]
LPS % cell toxicity [1, 20]: 0%
Fibrin % cell toxicity [2, 21]: 1%
inhibition at 10 µM [3, 22]: 8%
inhibition at 10 µM [4, 23]: -29%
Quadrant (FIG. 5b) [5, 19]: Q4

Cc1onc(-c2ccccc2Cl)c1C(=O)N[C@@H]1C(=O)N2[C@@H]1SC(C)(C)[C@@H]2C(=O)O [Cloxacillin]
LPS % cell toxicity [1, 11]: 1%
Fibrin % cell toxicity [2, 12]: 1%
inhibition at 10 µM [3, 13]: 17%
inhibition at 10 µM [4, 14]: -13%
Quadrant (FIG. 5b) ([5]; primary HTS, 10 μM): Q4

CO/N=C(\C(=O)N[C@@H]1C(=O)N2C(C(=O)O)=C(COC(C)=O)CS[C@H]12)c1csc(N)n1 [Cefotaxime]
LPS % cell toxicity [1, 11]: 0%
Fibrin % cell toxicity [2, 12]: 1%
LPS % inhibition [3, 13]: −8%
Fibrin % inhibition [4, 14]: −20%
Quadrant (FIG. 5b) ([5]; primary HTS, 10 μM): Q4

N=C(N)N/N=C/c1c(Cl)cccc1Cl [Guanabenz Acetate]
LPS % cell toxicity [1, 20]: 0%
Fibrin % cell toxicity [2, 21]: 0%
LPS % inhibition ([3]; primary microglia HTS, LPS stimulation, activation = cell size >800 μm2): −2%
Fibrin % inhibition [4, 23]: −46%
Quadrant (FIG. 5b) [5, 19]: Q4

CC(C)[C@H](N)C(=O)OCC(CO)OCn1cnc2c(=O)nc(N)[nH]c21 (stereo partly drawn) [Valganciclovir]
LPS % cell toxicity [1, 6]: 1%
Fibrin % cell toxicity [2, 7]: 0%
inhibition at 10 µM [3, 8]: 14%
inhibition at 10 µM [4, 9]: -12%
Quadrant (FIG. 5b) [5, 10]: Q4

CN(C)c1cc(NC(=O)CNC(C)(C)C)c(O)c2c1C[C@H]1C[C@H]3[C@H](N(C)C)C(O)=C(C(N)=O)C(=O)[C@@]3(O)C(O)=C1C2=O [Tigecycline]
LPS % cell toxicity [1, 6]: 0%
Fibrin % cell toxicity [2, 7]: 0%
inhibition at 10 µM [3, 8]: 13%
inhibition at 10 µM [4, 9]: 7%
Quadrant (FIG. 5b) [5, 10]: Q4

C[C@]12CCC(=O)C=C1CC[C@@H]1[C@@H]2CC[C@@]2(C)[C@H]1CC[C@]2(C)O [Methyltestosterone]
LPS % cell toxicity [1, 15]: 0%
Fibrin % cell toxicity [2, 16]: 1%
inhibition at 10 µM [3, 17]: -2%
inhibition at 10 µM [4, 18]: -40%
Quadrant (FIG. 5b) [5, 19]: Q4

C[C@@H]1O[C@@H](OC[C@H]2O[C@@H](Oc3c(-c4ccc(OCCO)c(OCCO)c4)oc4cc(OCCO)cc(O)c4c3=O)[C@H](O)[C@@H](O)[C@@H]2O)[C@H](O)[C@H](O)[C@H]1O [Troxerutin]
LPS % cell toxicity [1, 6]: 0%
Fibrin % cell toxicity [2, 7]: 0%
inhibition at 10 µM [3, 8]: 8%
inhibition at 10 µM [4, 9]: -10%
Quadrant (FIG. 5b) [5, 10]: Q4

CC(C(=O)O)c1cccc(Oc2ccccc2)c1 (stereo not drawn) [Fenoprofen]
LPS % cell toxicity [1, 20]: 0%
Fibrin % cell toxicity [2, 21]: 0%
inhibition at 10 µM [3, 22]: -4%
inhibition at 10 µM [4, 23]: -7%
Quadrant (FIG. 5b) [5, 19]: Q4

C[N+](C)(C)C[C@H](O)CC(=O)[O-] [Levocarnitine]
LPS % cell toxicity [1, 20]: 0%
Fibrin % cell toxicity [2, 21]: 1%
inhibition at 10 µM [3, 22]: 15%
inhibition at 10 µM [4, 23]: 8%
Quadrant (FIG. 5b) [5, 19]: Q4

CO/N=C(\C(=O)N[C@@H]1C(=O)N2C(C(=O)O)=C(CSc3nnnn3C)CS[C@H]12)c1csc(N)n1 [Cefmenoxime Hydrochloride]
LPS % cell toxicity [1, 11]: 0%
Fibrin % cell toxicity [2, 12]: 0%
inhibition at 10 µM [3, 13]: 2%
inhibition at 10 µM [4, 14]: -15%
Quadrant (FIG. 5b) ([5]; primary HTS, 10 μM): Q4

C[N+]1(C)[C@@H]2CC[C@H]1C[C@@H](OC(=O)C(CO)c1ccccc1)C2 (stereo partly drawn) [Methylatropine Nitrate]
LPS % cell toxicity [1, 15]: 0%
Fibrin % cell toxicity [2, 16]: 1%
inhibition at 10 µM [3, 17]: 14%
inhibition at 10 µM [4, 18]: -2%
Quadrant (FIG. 5b) [5, 19]: Q4

CO[C@@H]1[C@@H](OC(N)=O)[C@@H](O)[C@H](Oc2ccc3c(O)c(NC(=O)c4ccc(O)c(CC=C(C)C)c4)c(=O)oc3c2C)OC1(C)C [Novobiocin]
LPS % cell toxicity [1, 15]: 0%
Fibrin % cell toxicity [2, 16]: 0%
inhibition at 10 µM [3, 17]: 8%
inhibition at 10 µM [4, 18]: -17%
Quadrant (FIG. 5b) [5, 19]: Q4

S=C1SCN(Cc2ccccc2)CN1Cc1ccccc1 [Sulbentine]
LPS % cell toxicity [1, 6]: 0%
Fibrin % cell toxicity [2, 7]: 1%
inhibition at 10 µM [3, 8]: 13%
inhibition at 10 µM [4, 9]: 48%
Quadrant (FIG. 5b) [5, 10]: Q4

COc1cc(C(=O)N2CCOCC2)cc(OC)c1OC [Trimetozine]
LPS % cell toxicity [1, 6]: 0%
Fibrin % cell toxicity [2, 7]: 1%
inhibition at 10 µM [3, 8]: 12%
inhibition at 10 µM [4, 9]: 2%
Quadrant (FIG. 5b) [5, 10]: Q4

CCN(CC)CCNC(C(=O)OCCC(C)C)c1ccccc1 (stereo not drawn) [Camylofine Dihydrochloride]
LPS % cell toxicity [1, 11]: 1%
Fibrin % cell toxicity [2, 12]: 1%
inhibition at 10 µM [3, 13]: 15%
inhibition at 10 µM [4, 14]: -27%
Quadrant (FIG. 5b) ([5]; primary HTS, 10 μM): Q4

CCCCCCc1ccc(O)cc1O [Hexylresorcinol]
LPS % cell toxicity [1, 20]: 0%
Fibrin % cell toxicity [2, 21]: 1%
inhibition at 10 µM [3, 22]: 18%
inhibition at 10 µM [4, 23]: -6%
Quadrant (FIG. 5b) [5, 19]: Q4

CCC(Cc1c(I)cc(I)c(N)c1I)C(=O)O (stereo not drawn) [Iopanic acid, reference compound]
LPS % cell toxicity [1, 15]: 0%
IC50 ([1]; read-out: Cell Toxicity IC50 (uM) [LPS assay], Table 3): > 20 µM
Fibrin % cell toxicity [2, 16]: 1%
IC50 ([2]; read-out: Cell Toxicity IC50 (uM) [cFib assay], Table 3): > 20 µM
IC50 ([3]; Table 1, dose response 0.001-20 μM, triplicates, primary rat microglia, 48 h, read-out: LPS IC50): > 20 µM
IC50 ([3]; Table 3, read-out: LPS IC50 (uM) (Suppl. Table 7)): > 20 µM
IC50 ([3]; dose response, LPS-induced microglia activation, read-out: LPS IC50): > 20 µM
LPS % inhibition ([3]; primary microglia HTS, LPS stimulation, increased cell size (>800 μm^2) as marker of activation): 35%
Fibrin Selectivity [4]: 4
Fibrin Selectivity (LOG10) [4]: 0.58
IC50 ([4]; Table 1, dose response 0.001-20 μM, triplicates, primary rat microglia, 48 h, read-out: Fibrin IC50): 5 µM
IC50 ([4]; Table 3, read-out: Fibrin IC50 (uM) (Suppl. Table 7)): 5 µM
IC50 ([4]; dose response, fibrin-induced microglia activation, read-out: Fibrin IC50): 5 µM
Fibrin % inhibition [4, 18]: 51%
Hit ([5]; HTS hit classification): HIT (Hits were defined as molecules that exhibited greater than 50% inhibition of either fibrin or LPS activation)
Quadrant (FIG. 5b) ([5]; Table 1, screen at 10 μM): Q3
Cherry-picked Hit (Suppl. Table 7) ([5]; Table 3): HIT (Hits were defined as molecules that exhibited greater than 50% inhibition of either fibrin or LPS activation)
Quadrant (FIG. 5b) ([5]; Table 3, screen at 10 μM): Q3
Quadrant (FIG. 5b) [5, 19]: Q3

Cc1cc(O)cc(C)c1Cl [Chloroxylenol]
LPS % cell toxicity [1, 11]: 0%
Fibrin % cell toxicity [2, 12]: 1%
inhibition at 10 µM [3, 13]: 7%
inhibition at 10 µM [4, 14]: -15%
Quadrant (FIG. 5b) ([5]; primary HTS, 10 μM): Q4

O=C1OC2(c3ccc(O)cc3Oc3cc(O)ccc32)c2ccccc21 [Fluorescein]
LPS % cell toxicity [1, 20]: 0%
Fibrin % cell toxicity [2, 21]: 0%
inhibition at 10 µM [3, 22]: 4%
inhibition at 10 µM [4, 23]: -3%
Quadrant (FIG. 5b) [5, 19]: Q4

N[C@@H](C(=O)N[C@@H]1C(=O)N2C(C(=O)O)=C(Cl)CS[C@H]12)c1ccccc1 [Cefaclor]
LPS % cell toxicity [1, 11]: 0%
Fibrin % cell toxicity [2, 12]: 1%
inhibition at 10 µM [3, 13]: 19%
inhibition at 10 µM [4, 14]: -14%
Quadrant (FIG. 5b) ([5]; primary HTS, 10 μM): Q4

CC(=O)Nc1ncc([N+](=O)[O-])s1 [Nithiamide]
LPS % cell toxicity [1, 15]: 1%
Fibrin % cell toxicity [2, 16]: 1%
inhibition at 10 µM [3, 17]: 21%
inhibition at 10 µM [4, 18]: 3%
Quadrant (FIG. 5b) [5, 19]: Q4
